Test results from US6423729B1, “Therapeutic or prophylactic agent for glomerulopathy” (Shionogi & Co., Ltd., priority 1997, dated 2002).

What was measured:
[1] = test system: E30 monoclonal antibody-induced glomerulonephritis in Slc-Wistar rats; test: Urinary protein excretion in E30 monoclonal antibody-induced glomerulonephritis rats; assay type: in vivo, rat; details: urinary protein excretion on day 2 after E30 injection, compound-treated vs vehicle-treated group, oral, 100 mg once a day, first dose 2 hours before E30
Experimental: Five to eight weeks old male Slc-Wistar rats were used in the experiment.
In order to induce glomerulonephritis, E30 of 20 to 500 μg, preferably 50 to 200 μg, is intravenously injected to rats of five to eight weeks old. Test compounds of 0.1 to 500 mg, preferably 1 to 200 mg, are suspended with 3 to 10%, preferably 4 to 6%, gum arabic solution and the like, and are orally given 1 to 5 hours, preferably 1.5 to 3 hours, prior to E30 injection. Constant amount of test compounds are then consecutively given 1 to 3 times a day. Evaluation of test compounds are determined by the amount of urinary protein excretion 2 days after E30 injection when proteinuria reaches to the maximum level.
Determination of the amount of urinary protein excretion is performed by the collection of 24-hour urine samples with stainless metabolic cages followed by the measurement of the concentration of urinary protein. Blood samples obtained at the follow-up period are processed for the determination of blood urea nitrogen and plasma creatinine, which indicate renal function. As a marker of damaged renal tubules, urinary amounts of N-acetyl-D-glycosaminidase excretion is measured. Furthermore, to study the inhibitory effects of compounds on mesangial proliferation following E30 injection, the number of PCNA (proliferating cell nuclear antigen) positive cells per single glomerulus is counted. Morphological changes are observed with light and electron microscopy.
5-week-old male Slc-Wistar rats were reared under the conditions of room temperature of 25° C., 40-60% humidity and 12 hour cycles of light and darkness and fed on solid chow (CA-1, Clea Japan) and tap water ad libitum. After one week's preliminary rearing, each rat was housed in a stainless metabolic cage for acclimation for one week, and was used for experiment at 7 weeks of old (body weight: 150-180 g). E30 monoclonal antibody (J.J.N., vol. 36, p106, 1994) was diluted with saline at 100 μg/0.4 ml and was administered from tail vein at the volume of 0.4 ml/body. Compound (2) was suspended with 5% gum arabic solution and was given at the dose of 100 mg 2 hours before E30 injection. Subsequently, compound (2) of 100 mg was orally administered once a day from the next day. The rats were housed in stainless metabolic cages just after the administration of test compound, and then 24-hour urine samples were collected. After measuring the volume, the urine was centrifuged at 3000 rpm for 10 min at room temperature. […] Urinary protein was determined by pyrogallole red method (Micro TP-test Wako, Wako Zyunyaku). The amount of urinary protein excretion on day 2 in compound-treated group was compared with that in vehicle-treated one, and inhibitory ratio of urinary protein excretion was calculated. […]

MMP-9 = molecular target: T1, MMP-9 (Homo sapiens, UniProt P14780); test: Assay for inhibitory activity against MMP-9; assay type: biochemical
T1 construct: made in house; host or cells: HT1080 human fibrosarcoma cells; endogenous protein secreted after TPA treatment and purified from conditioned medium
Experimental: (§1) Assay for Inhibitory Activities of MMP-9 and MMP-2
(§2) The enzymatic activity was analyzed on the method described by Knight, C. G., et al. (C. Graham Knight., Frances Willenbrock and Gillian Murphy: A novel coumarin-labelled peptide for sensitive continuous assays of the matrix metalloproteinases. FEBS Lett., 296 (1992) 263-266).
MMP-9 was purified by using a combination of procedures described in previous reports as follows. Yasunori Okada, Yukio Gonoji, Katsumi Naka, Katsuro Tomita, Isao Nakanishi, Kazushi Iwata and Taro Hayakawa: Matrix metalloproteinase 9 (92-kDa gelatinase/type IV collagenase) from HT1080 human fibrosarcoma cells. Purification and activation of the precursor and enzymic properties. J. Biol. Chem., 267 (1992) 21712-21719. Yasunori Okada, Tatsuhisa Morodomi, Jan J, Enghild, Ko Suzuki, Atsushi Yasui, Isao Nakanishi, Guy Salvesen and Hideaki Nagase: Matrix metalloproteinase 2 from human rheumatoid synovial fibroblasts. Purification and activation of the precursor and enzymic properties. Eur. J. Biochem. 194 (1990) 721-730. Robin V Ward, Rosalind M Hembry, John J Reynolds and Gillian Murphy: The purification of tissue inhibitor of metalloproteinase-2 from its 72 kDa progelatinase complex. Biochem. J. 278 (1991) 179-187.
Briefly, human fibrosarcoma ATCC HT1080 cell line was cultured to confluent in Dulbecco's Modified Medium (DMEM) containing 10% fetal-calf serum at 37° C. for 48 hours. Subsequently, the medium of confluent culture was changed to serum-free DMEM medium. To obtain MMP-9, Phorbol-12-myristate-13-acetate (TPA) must be added to this serum-free DMEM medium at a concentration of 50 ng/ml. The TPA treated medium was centrifuged at 3000 rpm for 15 min and the supernatant was concentrated to 450 ml by a Toyo-Roshi UP-20 apparatus with an ultrafiltration membrane. Then, proMMP-9 in this concentrated solution was purified by using columns of Gelatin-Sepharose and Concanavalin A-Sepharose. The pool containing proMMP-9 was dialyzed, concentrated (Toyo-Roshi UP-20) and applied to columns of Sephacryl S-200 and Green A matrix for the separation from TIMPs. The obtained proMMP-9 fraction was activated by TPCK-Trypsin (final conc. […] reaction mix.) for the assay.
(§3) MOCAc-Pro-Leu-Gly-Leu-A2pr(Dnp)-Ala-Arg-NH2 as a substrate was purchased from Petide Institute(Osaka pref., Japan). This substrate was dissolved in DMSO at a concentration of 1 mM.
(§4) Reaction buffer consists of 50 mM Tris-HCl buffer (pH 7.5) containing 10 mM CaCl2, 0.3 M NaCl, 0.005% Brij35 and 0.01% NaN3.
Assay Method of Inhibitory Activity Against MMP-9:
(§5) 1.0 μl of a tested compound in DMSO is added to 48.0 μl of a reaction buffer containing 0.08 μl of an enzyme solution. After standing for 60 minutes at room temperature, the reaction was started by adding 1.0 μl of a substrate solution. After incubation for 60 minutes at room temperature, 100 μl of 3% (v/v) AcOH for reaction stopping and measured a fluorescence with excitation and emission at 320 nm and 405 nm, respectively (Spectrophotofluorometer; Fluoroscan Ascent (Labsystem)).
(§6) The measurement of the inhibitory activities (IC50) was carried out in a following four methods;
(§7) A) Reaction with substrate, enzyme and inhibitor
(§8) B) Reaction with substrate and inhibitor, without enzyme
(§9) C) Reaction with substrate and enzyme, without inhibitor
(§10) D) Reaction with substrate only
(§11) IC50 values were calculated by using a following formula and each fluorescence values of above four methods (A to D).
(§12) % inhibition={1−(A−B)/(C−D)}×100
(§13) IC50 means the concentration required to inhibit 50% of the enzyme activity.

MMP-2 = molecular target: T2, MMP-2 (Homo sapiens, UniProt P08253); test: Assay for inhibitory activity against MMP-2; assay type: biochemical
T2 construct: purchased Yagai (Yamagata pref., Japan)
T2 sequence (P08253 110-660): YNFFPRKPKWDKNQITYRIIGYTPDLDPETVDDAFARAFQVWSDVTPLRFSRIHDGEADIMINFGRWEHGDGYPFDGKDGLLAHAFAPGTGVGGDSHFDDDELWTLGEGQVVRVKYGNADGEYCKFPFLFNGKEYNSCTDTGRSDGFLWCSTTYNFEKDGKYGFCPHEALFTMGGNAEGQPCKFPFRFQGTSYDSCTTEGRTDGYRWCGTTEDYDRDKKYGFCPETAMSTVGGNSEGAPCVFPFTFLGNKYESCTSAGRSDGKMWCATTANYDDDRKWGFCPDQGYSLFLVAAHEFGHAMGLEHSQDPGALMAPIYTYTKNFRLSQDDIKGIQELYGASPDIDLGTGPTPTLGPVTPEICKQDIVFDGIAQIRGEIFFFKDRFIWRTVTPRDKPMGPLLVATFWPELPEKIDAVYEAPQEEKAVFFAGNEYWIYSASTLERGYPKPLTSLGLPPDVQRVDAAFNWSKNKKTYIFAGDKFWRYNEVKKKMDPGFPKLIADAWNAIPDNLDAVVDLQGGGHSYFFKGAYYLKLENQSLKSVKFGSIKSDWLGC
Experimental: as §1, §2
MMP-2 was purchased from Yagai (Yamagata pref., Japan).
as §3, §4
Assay Method of Inhibitory Activity Against MMP-2:
as §5, with “0.05” for “0.08”
as §6, §7, §8, §9, §10, §11, §12, §13

T1 sequence (P14780 107-707 limits assumed): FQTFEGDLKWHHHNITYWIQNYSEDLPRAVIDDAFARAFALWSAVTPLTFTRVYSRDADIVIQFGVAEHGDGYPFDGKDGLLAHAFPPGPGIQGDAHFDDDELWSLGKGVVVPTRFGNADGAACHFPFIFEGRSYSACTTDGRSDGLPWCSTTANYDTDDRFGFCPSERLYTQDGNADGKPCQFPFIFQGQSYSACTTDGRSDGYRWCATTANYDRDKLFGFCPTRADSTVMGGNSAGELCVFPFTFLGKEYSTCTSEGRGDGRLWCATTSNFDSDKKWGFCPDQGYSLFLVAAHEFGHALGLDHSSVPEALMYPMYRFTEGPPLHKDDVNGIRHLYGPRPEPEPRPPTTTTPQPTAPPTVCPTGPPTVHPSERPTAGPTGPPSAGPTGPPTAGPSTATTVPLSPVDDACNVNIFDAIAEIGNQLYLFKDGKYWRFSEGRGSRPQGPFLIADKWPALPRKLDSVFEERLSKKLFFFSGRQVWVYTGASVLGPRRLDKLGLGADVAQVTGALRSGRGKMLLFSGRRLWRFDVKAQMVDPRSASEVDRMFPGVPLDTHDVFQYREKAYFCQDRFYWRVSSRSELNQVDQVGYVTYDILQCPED

SMILES | Inhibitory rate (%) of urinary protein excretion [1] | IC50 (MMP-9) | IC50 (MMP-2) | melting point
CCc1ccc(-c2nnn(-c3ccc(S(=O)(=O)N[C@H](Cc4ccccc4)C(=O)O)cc3)n2)cc1 [Compound 108] | 35% | 31.2 nM | 9.92 nM | 187 to 189 °C
C[C@@H](NS(=O)(=O)c1ccc(-n2nnc(-c3ccc(F)cc3)n2)cc1)C(=O)O [Compound 114] | 2.7% | 316 nM | 27.8 nM | 194 to 195 °C
